Source: PMC9023740, “Mucin-Type O-Glycosylation Proximal to β-Secretase Cleavage Site Affects APP Processing and Aggregation Fate” (Frontiers in Chemistry, 2022)

Key:
[1] = target: T1, Recombinant human BACE-1 (rhBACE-1) (Homo sapiens, UniProt P56817); experiment: Proteolytic cleavage of APP (glyco)peptides by BACE-1, RP-HPLC peak integration; type: biochemical; conditions: 100 μM substrate, 50 nM rhBACE-1, 0.1 M sodium acetate pH 4.0, 24 h, 37°C, dark; RP-HPLC peak integration at 214 nm, averaged from two injections, SD <5%
T1 construct: purchased R&D Systems #ES004 and #931-AS, respectively (so in the source)
Procedure: All APP-based substrates were prepared as 10 mM stocks in DMSO. Before proteolysis, the activity of BACE-1 was verified by the reaction with the fluorogenic BACE-1substrate Mca-[…](Dnp)RR-NH2 ([Koike et al., 1999]) as per the manufacturer’s instructions. For the proteolysis assay, APP-based substrates were diluted in BACE-1 activity buffer (0.1 M sodium acetate, pH 4.0) to the final assay concentration of 100 μM. BACE-1 was diluted to 50 nM final concentration. Reactions were incubated for 24 h at 37°C in the dark. After the incubation period, the enzyme cleavage solutions containing APP-based substrates and BACE-1 were analyzed using the analytical RP-HPLC method on the Aeris C18 column with 0.1% TFA in water (A) and 0.1% TFA in acetonitrile (B) as eluents and 0–60% B as the elution gradient over 30 min with a flow rate of 0.8 ml/min, and detection at 214 nm or the Vydac Denali C18 column with 0.1% TFA in water (A) and 0.1% TFA in acetonitrile (B) as eluents and 0–60% B as the elution gradient over 30 min with a flow rate of 1 ml/min, and detection at 214 nm. The identity of intact and cleaved (N- and C-terminal) fragments of (glyco)peptides in the absence and presence of BACE-1 (β-secretase) was confirmed by MALDI-TOF and their percentages were evaluated by the integration of the RP-HPLC peaks (averaged from two injections).
Glycosylation can alter substrate recognition and impact enzyme activity in either a positive (enhancing) or negative (inhibiting) manner ([Goettig, 2016]; [Goth et al., 2018]). The mucin-type O-linked glycosylation of a protein may not only affect its conformation but also affect its transport and localization in the cell ([Matsuura et al., 1989]; [Chen et al., 2002]). Proteases are highly regulated by post-translational modifications and drive fate, localization, and activity of many proteins ([Bond, 2019]). Certain mutations can also affect the subcellular localization of the cleavage event by crucial proteases and mediate a different cellular mechanism for the protein ([Haass et al., 1995]). […] Therefore, similar enzyme cleavage assays with BACE-1 were set up to explore the effect of the Swedish mutation, length of the amino acid sequence, glycan position and valency on the proteolytic susceptibility of 3–12. BACE1 produced two fragments upon cleavage of (glyco)peptides, for which yields were determined after 24 h treatment. The yields of intact peptide and fragments were evaluated by the RP-HPLC peaks integration (Table 3, and the Supplementary Material S20–S32).
3. Enzyme cleavage assays with APP (glyco)peptides 3-12 by RP-HPLC and MALDI-TOF MS
For the BACE1 enzyme cleavage assay, APP-based (glyco)peptide substrates were diluted in BACE1 activity buffer and incubated with BACE1 for 24 h at 37 °C in the dark. After the incubation period, the enzyme cleavage solutions containing APP-based (glyco)peptide substrates and BACE1 were analyzed using analytical RP-HPLC.
RP-HPLC gradient on Phenomenex Aeris Peptide C18 column (150 x 4.6 mm, 3.6 µm, 100Å):
Eluents were 0.1% TFA in water (A) and 0.1% TFA in acetonitrile (B). The elution gradient was 0-60%B in 30 minutes with a flow rate of 0.8 mL/min. Detection was at λ = 214 nm.
S*/T*= Ser(-α-GalNAc) 1/Thr(-α-GalNAc) 2
(a) APP665-680, 3 in activity buffer
(b) APP665-680 (3) + BACE1 in activity buffer […]

[2] = CD spectroscopy, secondary structure content by BeStSel; type: physicochemical; conditions: for RC (%) random coil / α-H (%) α-helix / β-AP (%) anti-parallel β-sheet / β-P (%) parallel β-sheet / β-T (%) β-turn: CD, BeStSel, 0.065 mg/ml, 25°C
Procedure: All (glyco)peptides were analyzed for their secondary structure using circular dichroism (CD) spectroscopy on a Jasco-810 spectropolarimeter (Jasco, Easton, MD) in three solvent systems: water, 10 mM sodium phosphate buffer (pH 7.4), and 50% trifluoroethanol (TFE) in water (v/v) mixture. The CD spectra were recorded using a quartz cell of 1 mm optical path length over a wavelength range of […] with a scanning speed of 100 nm/min and a response time of 4 s at 25°C. A concentration of 0.065 mg/ml, determined using the analytical RP-HPLC method, gave the […] signal-to-noise ratio for all (glyco)peptides. All spectra were baseline-corrected to account for the signal contribution from solvent and then converted into molar ellipticity (deg cm^2 dmol^−1) ([Sreerama and Woody, 2000]). Lastly, the percentages of all secondary structures were determined using the BeStSel method ([Micsonai et al., 2018]; [Singh et al., 2021]).
To study the role of O-glycosylation on the conformation of APP glycopeptides, circular dichroism (CD) spectroscopy was used to probe the secondary structure in three different solvents, water, sodium phosphate buffer (10 mM, pH 7.4), and 50% trifluoroethanol (TFE) in water (v/v) (Figure 1). The spectra were further analysed for secondary structure estimations by Beta Structure Selection (BeStSel) method, specifically designed for the analysis of beta sheet-rich proteins (Table 2) ([Micsonai et al., 2015], [2018]).

[3] = (B) 10 mM sodium phosphate buffer, pH 7.4

T1 sequence (P56817 46-457 limits assumed): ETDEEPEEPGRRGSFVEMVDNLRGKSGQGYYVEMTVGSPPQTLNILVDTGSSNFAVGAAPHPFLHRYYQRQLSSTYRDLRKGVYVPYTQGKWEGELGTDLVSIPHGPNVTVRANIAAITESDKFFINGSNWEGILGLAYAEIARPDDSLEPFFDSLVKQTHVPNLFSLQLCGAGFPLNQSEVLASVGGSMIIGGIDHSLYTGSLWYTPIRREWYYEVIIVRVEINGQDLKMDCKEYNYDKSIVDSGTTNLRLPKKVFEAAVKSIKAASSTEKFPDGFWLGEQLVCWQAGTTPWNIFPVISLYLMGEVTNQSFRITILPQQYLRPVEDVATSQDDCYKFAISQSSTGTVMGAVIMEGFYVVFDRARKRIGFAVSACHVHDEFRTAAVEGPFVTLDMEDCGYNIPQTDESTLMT

Compound | BACE-1 activity, Cleaved (%) [1] | BACE-1 activity, Recovered (%) [1] | also measured
CC[C@H](C)[C@H](NC(=O)[C@@H](N)CCC(=O)O)C(=O)N[C@@H](CO)C(=O)N[C@@H](CCC(=O)O)C(=O)N[C@H](C(=O)N[C@@H](CCCCN)C(=O)N[C@@H](CCSC)C(=O)N[C@@H](CC(=O)O)C(=O)N[C@@H](C)C(=O)N[C@@H](CCC(=O)O)C(=O)N[C@@H](Cc1ccccc1)C(=O)N[C@@H](CCCNC(=N)N)C(=O)N[C@@H](Cc1c[nH]cn1)C(=O)N[C@@H](CC(=O)O)C(=O)N[C@@H](CO)C(=O)NCC(N)=O)C(C)C [compound 3] | 4.48% | 95.5% | –
CC[C@H](C)[C@H](NC(=O)[C@@H](N)CCC(=O)O)C(=O)N[C@@H](CO[C@H]1O[C@H](CO)[C@H](O)[C@H](O)[C@H]1NC(C)=O)C(=O)N[C@@H](CCC(=O)O)C(=O)N[C@H](C(=O)N[C@@H](CCCCN)C(=O)N[C@@H](CCSC)C(=O)N[C@@H](CC(=O)O)C(=O)N[C@@H](C)C(=O)N[C@@H](CCC(=O)O)C(=O)N[C@@H](Cc1ccccc1)C(=O)N[C@@H](CCCNC(=N)N)C(=O)N[C@@H](Cc1c[nH]cn1)C(=O)N[C@@H](CC(=O)O)C(=O)N[C@@H](CO)C(=O)NCC(N)=O)C(C)C [compound 4] | 1.40% | 98.6% | –
CC[C@H](C)[C@H](NC(=O)[C@@H](N)CCC(=O)O)C(=O)N[C@@H](CO)C(=O)N[C@@H](CCC(=O)O)C(=O)N[C@H](C(=O)N[C@@H](CC(N)=O)C(=O)N[C@@H](CC(C)C)C(=O)N[C@@H](CC(=O)O)C(=O)N[C@@H](C)C(=O)N[C@@H](CCC(=O)O)C(=O)N[C@@H](Cc1ccccc1)C(=O)N[C@@H](CCCNC(=N)N)C(=O)N[C@@H](Cc1c[nH]cn1)C(=O)N[C@@H](CC(=O)O)C(=O)N[C@@H](CO)C(=O)NCC(N)=O)C(C)C [compound 5] | 96.2% | 3.82% | –
CC[C@H](C)[C@H](NC(=O)[C@@H](N)CCC(=O)O)C(=O)N[C@@H](CO[C@H]1O[C@H](CO)[C@H](O)[C@H](O)[C@H]1NC(C)=O)C(=O)N[C@@H](CCC(=O)O)C(=O)N[C@H](C(=O)N[C@@H](CC(N)=O)C(=O)N[C@@H](CC(C)C)C(=O)N[C@@H](CC(=O)O)C(=O)N[C@@H](C)C(=O)N[C@@H](CCC(=O)O)C(=O)N[C@@H](Cc1ccccc1)C(=O)N[C@@H](CCCNC(=N)N)C(=O)N[C@@H](Cc1c[nH]cn1)C(=O)N[C@@H](CC(=O)O)C(=O)N[C@@H](CO)C(=O)NCC(N)=O)C(C)C [compound 6] | 93.0% | 7.02% | –
CC[C@H](C)[C@H](N)C(=O)N[C@@H](CCCCN)C(=O)N[C@H](C(=O)N[C@@H](CCC(=O)O)C(=O)N[C@@H](CCC(=O)O)C(=O)N[C@H](C(=O)N[C@@H](CO)C(=O)N[C@@H](CCC(=O)O)C(=O)N[C@H](C(=O)N[C@@H](CCCCN)C(=O)N[C@@H](CCSC)C(=O)N[C@@H](CC(=O)O)C(=O)N[C@@H](C)C(=O)N[C@@H](CCC(=O)O)C(=O)N[C@@H](Cc1ccccc1)C(=O)N[C@@H](CCCNC(=N)N)C(=O)N[C@@H](Cc1c[nH]cn1)C(=O)N[C@@H](CC(=O)O)C(=O)N[C@@H](CO)C(=O)NCC(N)=O)C(C)C)[C@@H](C)CC)[C@@H](C)O [compound 7] | 3.40% | 96.6% | –
CC[C@H](C)[C@H](N)C(=O)N[C@@H](CCCCN)C(=O)N[C@H](C(=O)N[C@@H](CCC(=O)O)C(=O)N[C@@H](CCC(=O)O)C(=O)N[C@H](C(=O)N[C@@H](CO)C(=O)N[C@@H](CCC(=O)O)C(=O)N[C@H](C(=O)N[C@@H](CC(N)=O)C(=O)N[C@@H](CC(C)C)C(=O)N[C@@H](CC(=O)O)C(=O)N[C@@H](C)C(=O)N[C@@H](CCC(=O)O)C(=O)N[C@@H](Cc1ccccc1)C(=O)N[C@@H](CCCNC(=N)N)C(=O)N[C@@H](Cc1c[nH]cn1)C(=O)N[C@@H](CC(=O)O)C(=O)N[C@@H](CO)C(=O)NCC(N)=O)C(C)C)[C@@H](C)CC)[C@@H](C)O [compound 10] | 79.7% | 20.3% | –
CC[C@H](C)[C@H](N)C(=O)N[C@@H](CCCCN)C(=O)N[C@H](C(=O)N[C@@H](CCC(=O)O)C(=O)N[C@@H](CCC(=O)O)C(=O)N[C@H](C(=O)N[C@@H](CO)C(=O)N[C@@H](CCC(=O)O)C(=O)N[C@H](C(=O)N[C@@H](CC(N)=O)C(=O)N[C@@H](CC(C)C)C(=O)N[C@@H](CC(=O)O)C(=O)N[C@@H](C)C(=O)N[C@@H](CCC(=O)O)C(=O)N[C@@H](Cc1ccccc1)C(=O)N[C@@H](CCCNC(=N)N)C(=O)N[C@@H](Cc1c[nH]cn1)C(=O)N[C@@H](CC(=O)O)C(=O)N[C@@H](CO)C(=O)NCC(N)=O)C(C)C)[C@@H](C)CC)[C@@H](C)O[C@H]1O[C@H](CO)[C@H](O)[C@H](O)[C@H]1NC(C)=O [compound 11] | 98.1% | 1.90% | –
CC[C@H](C)[C@H](N)C(=O)N[C@@H](CCCCN)C(=O)N[C@H](C(=O)N[C@@H](CCC(=O)O)C(=O)N[C@@H](CCC(=O)O)C(=O)N[C@H](C(=O)N[C@@H](CO[C@H]1O[C@H](CO)[C@H](O)[C@H](O)[C@H]1NC(C)=O)C(=O)N[C@@H](CCC(=O)O)C(=O)N[C@H](C(=O)N[C@@H](CC(N)=O)C(=O)N[C@@H](CC(C)C)C(=O)N[C@@H](CC(=O)O)C(=O)N[C@@H](C)C(=O)N[C@@H](CCC(=O)O)C(=O)N[C@@H](Cc1ccccc1)C(=O)N[C@@H](CCCNC(=N)N)C(=O)N[C@@H](Cc1c[nH]cn1)C(=O)N[C@@H](CC(=O)O)C(=O)N[C@@H](CO)C(=O)NCC(N)=O)C(C)C)[C@@H](C)CC)[C@@H](C)O[C@H]1O[C@H](CO)[C@H](O)[C@H](O)[C@H]1NC(C)=O [compound 12] | 96.1% | 3.90% | –
IKT*EEIS*EVKM∼DAEFRHDSG [compound 9, native APP 661-680 glycopeptide with O-GalNAc on Thr^663 and Ser^667] | 4.12% | 95.9% | RC (%) random coil ([2]; (A) water): 22.4%; α-H (%) α-helix ([2]; (A) water): 12.8%; β-AP (%) anti-parallel β-sheet ([2]; (A) water): 48.2%; β-P (%) parallel β-sheet ([2]; (A) water): 0.0%; β-T (%) β-turn ([2]; (A) water): 16.6%; RC (%) random coil [2, 3]: 48.7%; α-H (%) α-helix [2, 3]: 9.5%; β-AP (%) anti-parallel β-sheet [2, 3]: 24.6%; β-P (%) parallel β-sheet [2, 3]: 0.0%; β-T (%) β-turn [2, 3]: 17.1%; RC (%) random coil ([2]; (C) TFE/water = 1:1 (v/v)): 0.0%; α-H (%) α-helix ([2]; (C) TFE/water = 1:1 (v/v)): 94.4%; β-AP (%) anti-parallel β-sheet ([2]; (C) TFE/water = 1:1 (v/v)): 0.0%; β-P (%) parallel β-sheet ([2]; (C) TFE/water = 1:1 (v/v)): 0.0%; β-T (%) β-turn ([2]; (C) TFE/water = 1:1 (v/v)): 5.6%; β-structure (anti-parallel β-sheet, parallel β-sheet, and β-turn) ([2]; water, sum of BeStSel contents): 64.8%
